Assay: xn = mol fraction of the nth substance listed

CCCCCCCC(=O)OCC + CCCCO
viscosity [mPa·s], 100 kPa
Conditions | x2 = 0.1124 | x2 = 0.2221 | x2 = 0.3 | x2 = 0.4 | x2 = 0.4999 | x2 = 0.5999 | x2 = 0.727 | x2 = 0.8203 | x2 = 0.9108
293.15 K | 1.508 | 1.507 | 1.521 | 1.548 | 1.587 | 1.651 | 1.795 | 2.014 | 2.351
298.15 K | 1.378 | 1.379 | 1.378 | 1.407 | 1.436 | 1.488 | 1.61 | 1.789 | 2.071
303.15 K | 1.264 | 1.261 | 1.263 | 1.295 | 1.307 | 1.36 | 1.468 | 1.611 | 1.842
308.15 K | 1.162 | 1.161 | 1.164 | 1.177 | 1.193 | 1.233 | 1.331 | 1.458 | 1.646
313.15 K | 1.069 | 1.062 | 1.06 | 1.07 | 1.09 | 1.122 | 1.194 | 1.307 | 1.467
318.15 K | 0.999 | 0.988 | 0.99 | 0.993 | 1.013 | 1.039 | 1.106 | 1.193 | 1.327
323.15 K | 0.932 | 0.927 | 0.92 | 0.925 | 0.94 | 0.958 | 1.011 | 1.091 | 1.208

COC(C)=O + CCCCO
298.15 K, 101.33 kPa
Conditions | viscosity [mPa·s]
x1 = 0.0786 | 1.953
x1 = 0.144 | 1.566
x1 = 0.2105 | 1.28
x1 = 0.2986 | 1.019
x1 = 0.4151 | 0.791
x1 = 0.4971 | 0.677
x1 = 0.5919 | 0.576
x1 = 0.6406 | 0.534
x1 = 0.7116 | 0.484
x1 = 0.7972 | 0.44
x1 = 0.9034 | 0.402

COc1ccccc1N + CCCCO
viscosity [mPa·s], 101 kPa
Conditions | x1 = 0.1085 | x1 = 0.1811 | x1 = 0.2605 | x1 = 0.3474 | x1 = 0.4771 | x1 = 0.5867 | x1 = 0.6665 | x1 = 0.7526 | x1 = 0.8949
303.15 K | 2.547 | 2.719 | 2.91 | 3.123 | 3.448 | 3.729 | 3.943 | 4.18 | 4.597
308.15 K | 2.267 | 2.431 | 2.611 | 2.813 | 3.12 | 3.388 | 3.59 | 3.815 | 4.205
313.15 K | 2.036 | 2.194 | 2.365 | 2.554 | 2.846 | 3.103 | 3.297 | 3.516 | 3.895
318.15 K | 1.83 | 1.981 | 2.143 | 2.322 | 2.598 | 2.847 | 3.036 | 3.247 | 3.609

COc1ccccc1N + CCCCOCCO
303.15 K, 101 kPa
Conditions | viscosity [mPa·s]
x1 = 0.115 | 3.21
x1 = 0.2262 | 3.538
x1 = 0.3338 | 3.847
x1 = 0.438 | 4.116
x1 = 0.539 | 4.334
x1 = 0.6369 | 4.494
x1 = 0.7318 | 4.629
x1 = 0.8238 | 4.741
x1 = 0.9132 | 4.839

CCC(C)=O + CCCCn1cc[n+](C)c1.F[B-](F)(F)F
298.15 K, 101.33 kPa
Conditions | viscosity [mPa·s]
x2 = 0.7996 | 42.25
x2 = 0.8995 | 67.85

C1CCCCC1 + CCCO
Conditions | viscosity [mPa·s]
298.15 K, 100 kPa, x2 = 0.0547 | 0.8988
298.15 K, 100 kPa, x2 = 0.1077 | 0.9091
298.15 K, 100 kPa, x2 = 0.1968 | 0.9202
298.15 K, 100 kPa, x2 = 0.3164 | 0.9358
298.15 K, 100 kPa, x2 = 0.4278 | 1.013
298.15 K, 100 kPa, x2 = 0.6293 | 1.243
298.15 K, 100 kPa, x2 = 0.8064 | 1.502
298.15 K, 100 kPa, x2 = 0.8873 | 1.626
298.15 K, 101 kPa, x2 = 0.0166 | 0.873
298.15 K, 101 kPa, x2 = 0.0647 | 0.865
298.15 K, 101 kPa, x2 = 0.1219 | 0.867
298.15 K, 101 kPa, x2 = 0.2231 | 0.889
298.15 K, 101 kPa, x2 = 0.3207 | 0.946
298.15 K, 101 kPa, x2 = 0.3805 | 0.994
298.15 K, 101 kPa, x2 = 0.7039 | 1.371
298.15 K, 101 kPa, x2 = 0.8023 | 1.529
303.15 K, 101 kPa, x2 = 0.6491 | 1.1
303.15 K, 101.33 kPa, x2 = 0.109 | 0.8411
303.15 K, 101.33 kPa, x2 = 0.208 | 0.8728
303.15 K, 101.33 kPa, x2 = 0.3385 | 0.9327
303.15 K, 101.33 kPa, x2 = 0.4215 | 0.9852
303.15 K, 101.33 kPa, x2 = 0.6115 | 1.141
303.15 K, 101.33 kPa, x2 = 0.708 | 1.237
303.15 K, 101.33 kPa, x2 = 0.8094 | 1.37
308.15 K, 100 kPa, x2 = 0.0547 | 0.718
308.15 K, 100 kPa, x2 = 0.1077 | 0.7248
308.15 K, 100 kPa, x2 = 0.1968 | 0.7355
308.15 K, 100 kPa, x2 = 0.3164 | 0.7941
308.15 K, 100 kPa, x2 = 0.4278 | 0.8335
308.15 K, 100 kPa, x2 = 0.5319 | 0.8971
308.15 K, 100 kPa, x2 = 0.6293 | 0.9922
308.15 K, 100 kPa, x2 = 0.7206 | 1.095
308.15 K, 100 kPa, x2 = 0.8064 | 1.203
308.15 K, 100 kPa, x2 = 0.8873 | 1.317
308.15 K, 100 kPa, x2 = 0.9635 | 1.491
308.15 K, 101 kPa, x2 = 0.0166 | 0.736
308.15 K, 101 kPa, x2 = 0.0647 | 0.73
308.15 K, 101 kPa, x2 = 0.1219 | 0.732
308.15 K, 101 kPa, x2 = 0.2231 | 0.746
308.15 K, 101 kPa, x2 = 0.3207 | 0.782
308.15 K, 101 kPa, x2 = 0.3805 | 0.818
308.15 K, 101 kPa, x2 = 0.4203 | 0.845
308.15 K, 101 kPa, x2 = 0.6491 | 1.022
308.15 K, 101 kPa, x2 = 0.7039 | 1.099
308.15 K, 101 kPa, x2 = 0.8023 | 1.218
313.15 K, 101 kPa, x2 = 0.6491 | 0.9392
318.15 K, 101 kPa, x2 = 0.0166 | 0.634
318.15 K, 101 kPa, x2 = 0.0647 | 0.626
318.15 K, 101 kPa, x2 = 0.1219 | 0.624
318.15 K, 101 kPa, x2 = 0.2231 | 0.634
318.15 K, 101 kPa, x2 = 0.3207 | 0.66
318.15 K, 101 kPa, x2 = 0.3805 | 0.683
318.15 K, 101 kPa, x2 = 0.4203 | 0.706
318.15 K, 101 kPa, x2 = 0.7039 | 0.896
318.15 K, 101 kPa, x2 = 0.8023 | 0.992

Reference: the CheMixHub viscosity set
